Where only a bound is given, the exact number is not on record here.

Holding throughout (assay type): functional, cell-based
The test system of one assay is HL-60. As to the kind of experiment: Antiproliferative activity against human HL60 cells assessed as reduction in cell viability incubated for 48 hrs by MTS assay. Particulars: HL-60, 48 h. Background: Formazan colour is commonly taken as a measure of viable cells.
A further assay concerns SMMC-7721. As to the kind of experiment: Antiproliferative activity against human SMMC7721 cells assessed as reduction in cell viability incubated for 48 hrs by MTS assay. Particulars: SMMC-7721, 48 h.
The test system of the next assay is MCF7. The assay can be described thus: Antiproliferative activity against human MCF7 cells assessed as reduction in cell viability incubated for 48 hrs by MTS assay. The note with it: MCF7, 48 h.
In a further assay the test system is A549. As to the kind of experiment: Antiproliferative activity against human A549 cells assessed as reduction in cell viability incubated for 48 hrs by MTS assay. The note with it: A549, 48 h.
In a further assay the test system is SW480. As to the kind of experiment: Antiproliferative activity against human SW480 cells assessed as reduction in cell viability incubated for 48 hrs by MTS assay. Particulars: SW480, 48 h.

As a reminder, the IC50 is the concentration at which inhibition is half-maximal. Consider `COc1ccc(C(=O)C[n+]2ccn([C@H]3CC[C@@]4(C)C(=CC[C@H]5[C@@H]6C[C@@H]7O[C@]8(CC[C@@H](C)CO8)[C@@H](C)[C@@H]7[C@@]6(C)CC[C@@H]54)C3)c2)cc1`, for which the IC50 was 0.94 µM in the assay with HL-60; 1.61 µM in the assay with SMMC-7721; 1.96 µM with MCF7; 1.21 µM with A549; 4.15 µM in the assay on SW480.

As for `CC(C)CCC[C@@H](C)[C@H]1CC[C@H]2[C@@H]3CC=C4C[C@@H](n5cc[n+](Cc6ccc7ccccc7c6)c5)CC[C@]4(C)[C@H]3CC[C@]12C`, the IC50 with HL-60 is 5.39 µM; in the assay with SMMC-7721, 1.41 µM; with MCF7, 8.35 µM; in the assay on A549, 6.95 µM; with SW480, 9.29 µM.

Consider `Cc1cc2ncn([C@@H]3CC[C@@]4(C)C(=CC[C@H]5[C@@H]6CC[C@H]([C@H](C)CCCC(C)C)[C@@]6(C)CC[C@@H]54)C3)c2cc1C`, for which the IC50 in the assay on HL-60 is 0.18 µM; in the assay on SMMC-7721, more than 20 µM; in the assay with MCF7, more than 20 µM; in the assay on A549, more than 20 µM; with SW480, more than 20 µM.

`C[C@@H]1CC[C@@]2(OC1)O[C@H]1C[C@H]3[C@@H]4CC=C5C[C@H](n6cc[n+](CC(=O)c7ccccc7)c6)CC[C@]5(C)[C@H]4CC[C@]3(C)[C@H]1[C@@H]2C`: the IC50 stood at 1.09 µM with HL-60; 7.15 µM with SMMC-7721; 5.18 µM in the assay on MCF7; 7.3 µM with A549; 8.18 µM in the assay on SW480.

As for `C[C@@H]1CC[C@@]2(OC1)O[C@H]1C[C@H]3[C@@H]4CC=C5C[C@@H](n6cc[n+](CC(=O)c7ccccc7)c6)CC[C@]5(C)[C@H]4CC[C@]3(C)[C@H]1[C@@H]2C`, the IC50 was found to be 1.18 µM in the assay with HL-60; 2.14 µM in the assay with SMMC-7721; 5.66 µM in the assay with MCF7; 1.86 µM in the assay on A549; 7.96 µM in the assay with SW480.

On to `CC(C)CCC[C@@H](C)[C@H]1CC[C@H]2[C@@H]3CC=C4C[C@@H](n5cc[n+](Cc6ccccc6Br)c5)CC[C@]4(C)[C@H]3CC[C@]12C`, for which the IC50 in the assay with HL-60 turned out to be 2.35 µM; in the assay on SMMC-7721, 1.44 µM; in the assay with MCF7 it was 7.62 µM; with A549, 8.05 µM; with SW480, 7.75 µM.

As to `C[C@]12CC[C@H]3[C@@H](CC=C4C[C@@H](O)CC[C@@]43C)[C@@H]1CC[C@@H]2n1cc[n+](CC(=O)c2ccccc2)c1`, the IC50 in the assay with HL-60, with SMMC-7721, in the assay with MCF7, in the assay with A549 and in the assay with SW480 was more than 20 µM each time.

In the case of `CC(=O)O[C@H]1CC[C@@]2(C)C(=CC[C@H]3[C@@H]4CC[C@H](n5cc[n+](Cc6ccccc6Br)c5)[C@@]4(C)CC[C@@H]32)C1`, the concentration for half-maximal inhibition (IC50) is 1.48 µM with HL-60; 3.83 µM in the assay with SMMC-7721; 4.84 µM in the assay on MCF7; 6.52 µM in the assay on A549; 6.87 µM with SW480.

In the case of `CC(=O)O[C@H]1CC[C@@]2(C)C(=CC[C@H]3[C@@H]4CC[C@H](n5cc[n+](CC(=O)c6cccc(Br)c6)c5)[C@@]4(C)CC[C@@H]32)C1`, the IC50 in the assay with HL-60 was 4.35 µM; in the assay on SMMC-7721, 5.47 µM; with MCF7, 4.88 µM; with A549 it was 7.2 µM; in the assay with SW480 it was 7.26 µM.

`C[C@@H]1CC[C@@]2(OC1)O[C@H]1C[C@H]3[C@@H]4CC=C5C[C@H](n6cc[n+](CC(=O)c7cccc(Br)c7)c6)CC[C@]5(C)[C@H]4CC[C@]3(C)[C@H]1[C@@H]2C`: the IC50 is 1.25 µM in the assay on HL-60; 1.71 µM with SMMC-7721; 1.43 µM in the assay on MCF7; 1.55 µM with A549; 1.65 µM in the assay on SW480.

For the compound `C[C@@H]1CC[C@@]2(OC1)O[C@H]1C[C@H]3[C@@H]4CC=C5C[C@H](n6cc[n+](Cc7ccc8ccccc8c7)c6)CC[C@]5(C)[C@H]4CC[C@]3(C)[C@H]1[C@@H]2C`, the IC50 is 1.01 µM with HL-60; 1.15 µM in the assay on SMMC-7721; 1.09 µM in the assay with MCF7; 1.12 µM with A549; 1.59 µM in the assay with SW480.

Consider `CC(C)CCC[C@@H](C)[C@H]1CC[C@H]2[C@@H]3CC=C4C[C@H](n5cnc6ccccc65)CC[C@]4(C)[C@H]3CC[C@]12C`, for which the IC50 in the assay with HL-60, in the assay on SMMC-7721, in the assay with MCF7, in the assay with A549 and in the assay with SW480 was more than 20 µM in each case.

Turning to `Cc1cc2ncn([C@@H]3CC[C@@]4(C)C(=CC[C@H]5[C@@H]6C[C@@H]7O[C@]8(CC[C@@H](C)CO8)[C@@H](C)[C@@H]7[C@@]6(C)CC[C@@H]54)C3)c2cc1C`, the IC50 in the assay on HL-60, in the assay with SMMC-7721, in the assay on MCF7, in the assay with A549 and with SW480 was more than 20 µM each time.

In the case of `COc1ccc(C(=O)C[n+]2cn([C@@H]3CC[C@@]4(C)C(=CC[C@H]5[C@@H]6C[C@@H]7O[C@]8(CC[C@@H](C)CO8)[C@@H](C)[C@@H]7[C@@]6(C)CC[C@@H]54)C3)c3ccccc32)cc1`, the IC50 is 1.22 µM in the assay on HL-60; 1.45 µM in the assay on SMMC-7721; 2.11 µM with MCF7; 2.45 µM in the assay on A549; 2.55 µM in the assay on SW480.

Take `CC(C)CCC[C@@H](C)[C@H]1CC[C@H]2[C@@H]3C[C@H](n4cc[n+](CC(=O)c5ccc6ccccc6c5)c4)[C@]45C[C@H]4CC[C@]5(C)[C@H]3CC[C@]12C`: the IC50 in the assay on HL-60 was 2.41 µM; with SMMC-7721 it was 1.23 µM; in the assay with MCF7, 8 µM; in the assay on A549 it was 8.53 µM; in the assay with SW480, 6.25 µM.

`C[C@@H]1CC[C@@]2(OC1)O[C@H]1C[C@H]3[C@@H]4C[C@H](n5cc[n+](CC(=O)c6cccc(Br)c6)c5)[C@]56C[C@H]5CC[C@]6(C)[C@H]4CC[C@]3(C)[C@H]1[C@@H]2C`: the IC50 in the assay on HL-60 came to 1.28 µM; with SMMC-7721, 7.28 µM; in the assay on MCF7, 5.21 µM; in the assay on A549 it was 7.03 µM; in the assay with SW480, 6.46 µM.

With `C[C@@H]1CC[C@@]2(OC1)O[C@H]1C[C@H]3[C@@H]4CC=C5C[C@H](n6cnc7ccccc76)CC[C@]5(C)[C@H]4CC[C@]3(C)[C@H]1[C@@H]2C`, the IC50 in the assay with HL-60, with SMMC-7721, in the assay on MCF7, in the assay with A549 and in the assay on SW480 was more than 20 µM each time.

For `CC(C)CCC[C@@H](C)[C@H]1CC[C@H]2[C@@H]3CC=C4C[C@H](n5cc[n+](CC(=O)c6ccc7ccccc7c6)c5)CC[C@]4(C)[C@H]3CC[C@]12C`, the IC50 in the assay on HL-60 is 10.6 µM; in the assay with SMMC-7721, 1.88 µM; with MCF7, more than 20 µM; in the assay with A549, 8.82 µM; with SW480, 10.5 µM.

`C[C@@H]1CC[C@@]2(OC1)O[C@H]1C[C@H]3[C@@H]4CC=C5C[C@H](n6ccnc6)CC[C@]5(C)[C@H]4CC[C@]3(C)[C@H]1[C@@H]2C`: the half-inhibitory concentration (IC50) in the assay on HL-60, with SMMC-7721, in the assay with MCF7, in the assay on A549 and in the assay with SW480 was more than 20 µM in each case.

For `CC(C)CCC[C@@H](C)[C@H]1CC[C@H]2[C@@H]3CC=C4C[C@@H](n5ccnc5)CC[C@]4(C)[C@H]3CC[C@]12C`, the IC50 in the assay with HL-60, with SMMC-7721, in the assay on MCF7, with A549 and with SW480 was more than 20 µM each time.

For the compound `COc1ccc(C(=O)C[n+]2ccn([C@H]3CC[C@H]4[C@@H]5CC=C6C[C@@H](O)CC[C@]6(C)[C@H]5CC[C@]34C)c2)cc1`, the IC50 in the assay on HL-60, in the assay with SMMC-7721, with MCF7, in the assay with A549 and in the assay on SW480 was more than 20 µM in each case.

On to `CC(=O)O[C@H]1CC[C@@]2(C)C(=CC[C@H]3[C@@H]4CC[C@H](n5cc[n+](Cc6ccc7ccccc7c6)c5)[C@@]4(C)CC[C@@H]32)C1`, for which the IC50 with HL-60 was determined as 1.22 µM; in the assay on SMMC-7721 it was 2.45 µM; in the assay on MCF7, 2.53 µM; with A549, 4.74 µM; with SW480, 5.64 µM.

With `C[C@]12CC[C@H](O)CC1=CC[C@@H]1[C@@H]2CC[C@]2(C)C(=O)CC[C@@H]12` [PRASTERONE], the IC50 in the assay with HL-60, in the assay on SMMC-7721, with MCF7, in the assay on A549 and with SW480 was more than 20 µM throughout.

For the compound `COc1ccc(C(=O)C[n+]2ccn([C@H]3CC[C@H]4[C@@H]5CC=C6C[C@@H](OC(C)=O)CC[C@]6(C)[C@H]5CC[C@]34C)c2)cc1`, the IC50 in the assay with HL-60 was determined as 2.2 µM; in the assay with SMMC-7721 it was 4.31 µM; in the assay with MCF7, 3.46 µM; in the assay on A549 it was 10.7 µM; in the assay with SW480, 6.06 µM.

For the compound `Cc1cc2c(cc1C)[n+](CC(=O)c1ccccc1)cn2[C@@H]1CC[C@@]2(C)C(=CC[C@H]3[C@@H]4C[C@@H]5O[C@]6(CC[C@@H](C)CO6)[C@@H](C)[C@@H]5[C@@]4(C)CC[C@@H]32)C1`, the IC50 in the assay with HL-60 was found to be 0.44 µM; in the assay with SMMC-7721 it was 0.9 µM; in the assay with MCF7, 2.91 µM; with A549 it was 9.57 µM; in the assay with SW480, 3.22 µM.

In the case of `C[C@@H]1CC[C@@]2(OC1)O[C@H]1C[C@H]3[C@@H]4C[C@H](n5cc[n+](Cc6ccccc6Br)c5)[C@]56C[C@H]5CC[C@]6(C)[C@H]4CC[C@]3(C)[C@H]1[C@@H]2C`, the IC50 in the assay with HL-60 turned out to be 1.24 µM; with SMMC-7721 it was 4.58 µM; in the assay with MCF7 it was 3.86 µM; in the assay on A549 it was 6.6 µM; in the assay on SW480 it was 6.33 µM.

Values taken from ChEMBL document CHEMBL4340516, “Synthesis and antitumor activity of novel steroidal imidazolium salt derivatives” (Eur J Med Chem, 2019).
